From ChEMBL document CHEMBL3763035, “Neuroprotective profile of pyridothiazepines with blocking activity of the mitochondrial Na(+)/Ca(2+) exchanger” (Eur J Med Chem, 2016) come the findings set out here.

The source made the active and inactive calls. No cut-off for these calls is given here.

Data set [1] deals with SH-SY5Y. The data set can be described thus: Neuroprotective activity against rotenone/oligomycin A-induced oxidative stress in human SH-SY5Y cells assessed as cell viability at 0.3 uM pretreated for 24 hrs measured 24 hrs post rotenone/oligomycin challenge by MTT assay relative to control. It is filed as functional. The conditions noted are these: read-out: Activity.
The nature of data set [2]: Neuroprotective activity against veratradine-induced neuronal cell death in bovine chromaffin cells assessed as cell viability at 10 uM after 24 hrs by LDH release assay relative to control. Type of data set: functional. To be noted: Bos taurus, read-out: Activity. (In general: LDH leaks from cells whose membrane has failed.)
In the next data set the test system is Hippocampus. Description: Neuroprotective activity against glutamate-induced neuronal cell death in Sprague-Dawley rat brain hippocampal slices assessed as cell viability at 10 uM incubated 4 hrs by MTT assay relative to control. It is filed as functional. To be noted: read-out: Activity. For orientation: Formazan colour is commonly taken as a measure of viable cells.

Data set [3] concerns SH-SY5Y. The data set can be described thus: Neuroprotective activity against potassium ion-induced cytotoxicity in human SH-SY5Y cells assessed as cell viability at 3 uM pretreated for 24 hrs measured 24 hrs post potassium ion challenge by MTT assay relative to control. The conditions noted are these: read-out: Activity. Type of data set: functional.
In data set [4] the target is T1, Mitochondrial sodium/calcium exchanger protein (Homo sapiens) (UniProt Q6J4K2).
T1 sequence (whole entry): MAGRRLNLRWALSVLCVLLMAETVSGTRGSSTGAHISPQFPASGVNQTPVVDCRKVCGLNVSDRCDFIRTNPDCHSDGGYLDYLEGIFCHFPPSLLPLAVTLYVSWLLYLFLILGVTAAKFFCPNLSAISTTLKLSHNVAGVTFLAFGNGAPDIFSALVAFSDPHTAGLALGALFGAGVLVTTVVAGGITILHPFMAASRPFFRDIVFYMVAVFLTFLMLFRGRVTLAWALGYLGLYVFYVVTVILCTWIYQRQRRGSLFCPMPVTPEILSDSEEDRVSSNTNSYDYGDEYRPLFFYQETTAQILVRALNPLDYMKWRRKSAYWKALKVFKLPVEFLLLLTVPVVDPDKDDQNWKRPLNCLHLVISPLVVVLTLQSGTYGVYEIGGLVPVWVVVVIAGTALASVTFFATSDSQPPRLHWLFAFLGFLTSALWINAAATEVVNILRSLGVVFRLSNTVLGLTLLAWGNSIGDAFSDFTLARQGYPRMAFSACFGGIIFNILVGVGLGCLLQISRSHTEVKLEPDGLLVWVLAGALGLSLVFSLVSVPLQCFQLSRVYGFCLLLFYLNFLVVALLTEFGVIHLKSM
The data set can be described thus: Inhibition of mitochondrial sodium/calcium exchanger in human HeLa cells assessed as reduction in decay rate of histamine-induced mitochondrial calcium at 3 uM after 36 to 48 hrs by aequorin staining based bioluminescence assay. Type of data set: cell-based.

For data set [5], the species on record is Bos taurus. Description: Inhibition of voltage gated calcium channel in bovine chromaffin cells assessed as blockade of depolarizing pulse-induced whole cell inward calcium currents by perforated patch clamp method. Type of data set: cell-based. A general note: In patch-clamp work, channel activity is measured electrically.
A further data set has as its system HeLa. The data set can be described thus: Cytotoxicity against human HeLa cells assessed as reduction in cell viability at 0.3 to 30 uM after 24 hrs by MTT assay. It is filed as cell-based.
Data set [6] relates to SH-SY5Y. The data set can be described thus: Cytotoxicity in human SH-SY5Y cells assessed as ROS generation after 24 hrs by H2DCFDA/Hoechst dye based fluorescence assay. Type of data set: cell-based.
For data set [7], the species on record is Bos taurus. The data set can be described thus: Inhibition of sodium channel in bovine chromaffin cells assessed as blockade of inward sodium currents by perforated patch clamp method. It is filed as cell-based.
Data set [8] addresses T1, Mitochondrial sodium/calcium exchanger protein (Homo sapiens). Description: Inhibition of mitochondrial sodium/calcium exchanger in human HeLa cells assessed as increase in maximal peak of histamine-induced mitochondrial calcium at 3 uM after 36 to 48 hrs by aequorin staining based bioluminescence assay. It is filed as cell-based.
For data set [9] the target is unchanged. Description: Inhibition of mitochondrial sodium/calcium exchanger in human HeLa cells assessed as increase in AUC of histamine-induced mitochondrial calcium at 3 uM after 36 to 48 hrs by aequorin staining based bioluminescence assay. Type of data set: cell-based.
Data set [10] has the same target. The data set can be described thus: Inhibition of mitochondrial sodium/calcium exchanger in human HeLa cells assessed as reduction in clearance of histamine-induced mitochondrial calcium at 3 uM after 36 to 48 hrs by aequorin staining based bioluminescence assay. It is filed as cell-based.
Data set [11] deals with T2, Mitochondrial sodium/calcium exchanger protein (Homo sapiens, UniProt Q6J4K2).
T2 sequence (Q6J4K2 whole entry): T1 sequence (whole entry)
Description: Inhibition of mitochondrial sodium/calcium exchanger (unknown origin).

`Cc1ccccc1C1SCC(=O)Nc2ncc(Cl)cc21` (stereo not given): the viability at 0.3 µM in the data set on SH-SY5Y [1] stood at 21%. For the same compound, the viability at 10 µM is 14% in data set [2] and 27% with Hippocampus. In addition, in the data set with SH-SY5Y [3], the viability at 3 µM stood at 20%.

`COc1ccc2[nH]cc(CCNC(C)=O)c2c1` [MELATONIN]: in the data set with SH-SY5Y [1], the viability at 0.3 µM came out at 27%.

On to `O=C1CSC(c2ccccc2)c2cc(Cl)cnc2N1` (stereo not given), for which, in data set [4], the inhibition – broadly, the relative decrease from the control value, in per cent – is “Active”. The viability at 0.3 µM with SH-SY5Y [1] stood at 30%. For the same compound, the viability at 10 µM was found to be 6% in data set [2] and 33% in the data set with Hippocampus. Also, the viability at 3 µM with SH-SY5Y [3] was found to be 21%.

`CC(C)c1ccccc1C1SCC(=O)Nc2ncc(Cl)cc21` (stereo not given): in the data set with SH-SY5Y [1], the viability at 0.3 µM was found to be 19%. The results for the viability at 10 µM (in data set [2]; in the data set with Hippocampus) were 49% and 33%, respectively. The viability at 3 µM in the data set on SH-SY5Y [3] was determined as 28%.

In the case of `O=C1CSC(c2ccc(F)cc2)c2cc(Cl)cnc2N1` (stereo not given), the inhibition result in the data set listed under Bos taurus [5] and in the data set filed under Bos taurus [7] was “inactive” in each case. Besides, the inhibition result in data set [4], in [8] and in data set [9] was “Active” in each case. Moreover, the Activity entry in the data set with HeLa and in the data set on SH-SY5Y [6] was “Non-toxic” in each case. Also, the viability at 0.3 µM with SH-SY5Y [1] was found to be 24%. The viability at 10 µM in data set [2] was found to be 22%; in the data set with Hippocampus, 20%. Moreover, the viability at 3 µM in the data set on SH-SY5Y [3] amounted to 27%.

On to `CC12CC3CC(C)(C1)CC(N)(C3)C2` [MEMANTINE], for which the viability at 10 µM in the data set with Hippocampus was found to be 43%.

For the compound `COc1ccc(C2SCC(=O)Nc3ncc(Cl)cc32)cc1` (stereo not given), the viability at 0.3 µM with SH-SY5Y [1] was determined as 23%. Besides, the results for the viability at 10 µM (in data set [2]; with Hippocampus) were 27% and 34%, respectively. For the same compound, the viability at 3 µM in the data set on SH-SY5Y [3] turned out to be 10%.

Take `COC(=O)C1=C(C)NC(C)=C(C(=O)OC)C1c1ccccc1[N+](=O)[O-]` [NIFEDIPINE]: the viability at 3 µM in the data set on SH-SY5Y [3] is 24%.

For `O=C1CSC(c2ccccc2Br)c2cc(Cl)cnc2N1` (stereo not given), the inhibition entry in [4] was “Active”. Moreover, in the data set with SH-SY5Y [1], the viability at 0.3 µM worked out at 21%. For the same compound, the viability at 10 µM in data set [2] is 23%; with Hippocampus, 28%. Moreover, the inhibition result in [10] was “inactive”. In the data set with SH-SY5Y [3], the viability at 3 µM was 30%.

`O=C1CSC(c2ccccc2C(F)(F)F)c2cc(Cl)cnc2N1` (stereo not given): the viability at 0.3 µM in the data set on SH-SY5Y [1] was 18%. For the same compound, the results for the viability at 10 µM (in [2]; in the data set with Hippocampus) were 17% and 42%, respectively. The viability at 3 µM with SH-SY5Y [3] was 19%.

For the compound `O=C1CSC(c2ccccc2Cl)c2cc(Cl)ccc2N1` (stereo not given), in the data set listed under Bos taurus [5] (dose or concentration not given here), the inhibition is 37%. For the same compound, the half-maximal inhibitory concentration (IC50) (in general, the concentration that inhibits the measured activity by half) in data set [11] was determined as 1600 nM. Moreover, the inhibition entry in data set [4] was “Active”. Moreover, in the data set with SH-SY5Y [1], the viability at 0.3 µM came out at 18%. Besides, the viability at 10 µM came to 76% in [2] and 37% with Hippocampus. Also, in the data set on SH-SY5Y [3], the viability at 3 µM stood at 36%.

In the case of `CCOc1ccccc1C1SCC(=O)Nc2ncc(Cl)cc21` (stereo not given), the viability at 0.3 µM in the data set with SH-SY5Y [1] was determined as 26%. The figures for the viability at 10 µM (in data set [2]; in the data set on Hippocampus) were 17% and 11%, respectively. The viability at 3 µM in the data set on SH-SY5Y [3] stood at 28%.

For the compound `O=C1CSC(c2ccccc2Cl)c2cc(Cl)cnc2N1` (stereo not given), in the data set with SH-SY5Y [1], the viability at 0.3 µM is 11%. Besides, the viability at 10 µM in [2] turned out to be 22%; in the data set on Hippocampus, 27%. The viability at 3 µM with SH-SY5Y [3] stood at 33%.

Take `COc1ccccc1C1SCC(=O)Nc2ncc(Cl)cc21` (stereo not given): the viability at 0.3 µM with SH-SY5Y [1] came to 19%. Besides, the viability at 10 µM worked out at 27% in data set [2] and 13% in the data set with Hippocampus. In addition, the viability at 3 µM with SH-SY5Y [3] amounted to 17%.
